The source of these data is US10208078B1 (SHAANXI UNIVERSITY OF SCIENCE AND TECHNOLOGY, priority 2018, dated 2019).

The test is described as follows: DPPH radical scavenging activity assay. The class given is biochemical. More on the design: Scavenging activity (%): unit of the concentration uncertain. Conditions: for Scavenging activity (%): 0.2 mmol/L DPPH, 30 minutes room temperature in dark, absorbance at 517 nm. The source says: 2,2-Diphenyl-1-picryl hydrazyl (DPPH) is an organic compound composed of a stable organic radical. In the DPPH molecule, due to the presence of multiple electron-withdrawing —NO2 and large π bonds of the benzene ring, nitrogen free radical is stabilized. Its methanol solution is purple and has a maximum absorption peak at 517 nm. After the addition of an antioxidant, DPPH captures an electron to be paired with the free electron, and the purple fades and turns into a yellow substance. The absorption at 517 nm disappears, and the degree of fading is quantitatively related to the number of electrons it captures. Based on this principle, a spectrophotometer is used to detect the change of the absorbance of the DPPH radical and the sample solution, and the ability of the sample to provide hydrogen atoms and scavenge free radicals can be measured.
Preparation of DPPH solution: measuring exact amount of 2,2-diphenyl-1-picryl hydrazyl (DPPH) and dissolving in methanol to prepare a 0.2 mmol/L DPPH solution, stored at 0° C. in dark.
Measuring the scavenging activity of the sample solutions:
2 mL of the sample solutions at each concentration gradient was taken, 2 mL 0.2 mmol/L DPPH solution was added, the mixture was mixed and reacted at room temperature in dark for 30 minutes, and methanol was then added to adjust final volume. The absorbance Ai was measured at 517 nm. 2 mL control solution and 2 mL methanol were mixed, and the absorbance Aj was measured. 2 mL DPPH solution and 2 mL methanol were mixed, and the absorbance A0 was measured. The scavenging activity of the sample solution and control solutions is calculated according to the following calculation formula. Scavenging activity (%)=100×[1−(Ai−Aj)/A0]
In FIG. 1, the X axis represents the concentrations (PPM) of the sample and control solutions, and the Y axis represents the scavenging activity.
On the technique in general: DPPH is a stable violet radical that fades when it is reduced.

Where [1] appears, read: concentration 6.89 (unit uncertain).
Where [2] appears, read: concentration 68.9 (unit uncertain).
The mark [3] stands for this setting: concentration 172 (unit uncertain).
The mark [4] stands for this setting: concentration 689 (unit uncertain).
Setting [5] is: concentration 1724 (unit uncertain).
Where [6] appears, read: concentration 6890 (unit uncertain).
[7] abbreviates: concentration 8620 (unit uncertain).

`O=C(O)CCSCCC(=O)O` [Thiodipropionic acid, 3,3′-thiodipropionic acid]: the “Scavenging activity (%)” value was 1.13% under setting [1]; 3.84% under setting [2]; 4.64% under setting [3]; 5.20% under setting [4]; 5.43% under setting [5]; 6.33% under setting [6]. Moreover, the “Scavenging activity (%)” value under setting [7] is 6.57%.
For `O=C(CCSCCC(=O)OCC1OC(Oc2cc3ccc(=O)oc3cc2O)C(O)C(O)C1O)OCC1OC(Oc2cc3ccc(=O)oc3cc2O)C(O)C(O)C1O` (stereo not shown) [Aesculin thiodipropionic acid ester, aesculin thiodipropionic acid ester], for the setting “achieved at a lower concentration than aesculin, thiodipropionic acid and their mixture”, the “free radical clearance rate” value is on record as “more than 90%”. The “Scavenging activity (%)” value by setting is: under setting [1], 7.60%; under setting [2], 37.08%; under setting [3], 58.91%; under setting [4], 77.78%; under setting [5], 90.95%; under setting [6], 94.83%. The “Scavenging activity (%)” value under setting [7] was determined as 96.12%.
In the case of `O=C1O[C@H]([C@@H](O)CO)C(O)=C1O` [Vitamin C, vitamin C], the “Scavenging activity (%)” value reads like this: under setting [1], 53.40%; under setting [2], 96.15%; under setting [3], 96.28%; under setting [4], 96.79%; under setting [5], 96.79%; under setting [6], 97.18%. Moreover, the “Scavenging activity (%)” value under setting [7] turned out to be 97.43%.
